Converted amounts (≈) assume the structure as drawn. The source made the active and inactive calls. The rule behind the calls is not given here.
Assays:
[1] = system: Acyrthosiphon pisum; experiment: Repellent effect in Acyrthosiphon pisum (pea aphid) at 0.1 ug/cm'2; format: functional, organism-based
[2] = system: Tribolium castaneum; experiment: Insecticidal activity against Tribolium castaneum (red flour beetle) Herbst assessed as mortality treated topically at 0.24 mg/insect measured per insect after 24 hr; format: functional
[3] = system: Acyrthosiphon pisum; experiment: Insecticidal activity against Acyrthosiphon pisum (pea aphid) assessed as mortality treated topically at 30 ug/insect measured after 24 hr; format: functional
[4] = system: Tribolium castaneum; experiment: Insecticidal activity against Tribolium castaneum (red flour beetle) assessed as mortality treated topically measured per insect after 24 hr; format: functional
[5] = system: Acyrthosiphon pisum; experiment: Insecticidal activity against Acyrthosiphon pisum (pea aphid) treated artificial diet with compound assessed as mortality at 0.7 mg/ml after 3 days; format: functional; conditions: 72 h
[6] = system: Acyrthosiphon pisum; experiment: Insecticidal activity against Acyrthosiphon pisum (pea aphid) treated artificial diet with compound assessed as mortality at 0.7 mg/ml after 1 day; format: functional; conditions: 24 h
[7] = system: Acyrthosiphon pisum; experiment: Insecticidal activity against Acyrthosiphon pisum (pea aphid) treated artificial diet with compound for 3 days assessed as mortality; format: functional; conditions: for LC50: Acyrthosiphon pisum, 72 h
[8] = system: Acyrthosiphon pisum; experiment: Insecticidal activity against Acyrthosiphon pisum (pea aphid) treated artificial diet with compound assessed as mortality at 0.1 mg/ml after 1 day; format: functional, organism-based
[9] = system: Tribolium castaneum; experiment: Repellent effect in Tribolium castaneum (red flour beetle) at 0.1 ug/cm'2 measured after 8 hr; format: functional, organism-based
[10] = system: Tribolium castaneum; experiment: Repellent effect in Tribolium castaneum (red flour beetle) at 10 ug/cm'2 measured after 4 hr; format: functional
[11] = system: Acyrthosiphon pisum; experiment: Repellent effect in Acyrthosiphon pisum (pea aphid) at 10 ug/cm'2; format: functional
[12] = system: Tribolium castaneum; experiment: Insecticidal activity against Tribolium castaneum (red flour beetle) assessed as mortality at 0.25 mg/insect; format: functional
[13] = system: Tribolium castaneum; experiment: Repellent effect in Tribolium castaneum (red flour beetle) at 10 ug/cm'2 measured after 24 hr; format: functional

Structure (SMILES)	Activity [1]	mortality [2]	mortality [3]	LC50 [4]	LC90 [4]	mortality at 700 µg/mL [5]	mortality at 700 µg/mL [6]	LC90 [7]	LC50 [7]	mortality [8]	Activity [9]	Repellency [10]	Repellency [11]	LT50 [12]	Activity [10]	Repellency [13]
C=CCOC(=O)c1ccco1 [ALLYL 2-FUROATE]	inactive	45%	inactive	0.2 mg	0.46 mg	68%	52%	2900 µg/mL (≈ 19100 µM)	210 µg/mL (≈ 1380 µM)	inactive	–	–	–	–	–	–
C=CCOC(=O)/C=C/c1ccccc1 [ALLYL CINNAMATE]	–	45%	75%	0.2 mg	0.28 mg	100%	86%	180 µg/mL (≈ 956 µM)	30 µg/mL (≈ 159 µM)	inactive	Active	80%	34%	<2 h	–	–
C=CCOC(=O)CCCCCC [ALLYL HEPTANOATE]	inactive	45%	inactive	–	0.32 mg	72%	53%	1160 µg/mL (≈ 6810 µM)	–	inactive	–	–	–	<2 h	–	–
C=CCOC(=O)CCCCC [ALLYL HEXANOATE]	inactive	45%	inactive	–	0.3 mg	–	–	–	–	inactive	–	–	–	–	inactive	–
C=CCOC(=O)CCCCCCC [ALLYL OCTANOATE]	inactive	45%	inactive	0.1 mg	0.16 mg	–	–	–	–	inactive	–	–	–	–	–	–
CCN(CC)C(=O)c1cccc(C)c1 [DIETHYLTOLUAMIDE]	–	–	–	–	–	–	–	–	–	–	–	60%	50%	–	–	84%

From ChEMBL document CHEMBL3046305, “Insecticidal and repellent action of allyl esters against Acyrthosiphon pisum (Hemiptera: Aphididae) and Tribolium castaneum (Coleoptera: Tenebrionidae)” (2013)
